This note sets out measurements from US11440923B2, “Substituted macrocyclic indole derivatives” (Bayer Aktiengesellschaft, priority 2017, dated 2022).

Counter-ions that a name gives are not always drawn. Like-named read-outs stand apart in the source and are kept apart here. Some results are limits rather than exact numbers.

For data set [1], the target named is MCL-1 (Homo sapiens (Human), UniProt Q07820, K194A/K197A/R201A). Briefly: Protein-protein interaction assay MCL-1/Noxa BH3 peptide (MCL-1 assay, TR-FRET). It is filed as binding. The settings on record: MCL-1 Assay IC50 (median). The procedure:
The dose-dependent inhibition by the compounds described in this invention of the interaction between MCL-1 and the BH3 domain of Noxa (both human) was determined using a steady state binding competition assay with time-resolved fluorescence energy transfer (TR-FRET) readout. For that purpose MCL-1 (amino acids 173-321, N-terminal fused to Maltose Binding Protein (MBP) SEQ ID 1)) and a synthetic Noxa BH3-derived peptide of sequence Biotin-PEG2-PEG2-PAELEVE-Nva-[…]-amide (SEQ ID 2) served as protein receptor and tracer ligand respectively. The MBP-MCL-1 was purchased from Beryllium (Bedford, Mass., USA). The expression and purification of this protein construct has been described elsewhere (DOI:10.1371/journal.pone.0125010). The Noxa BH3-derived peptide can be obtained from e.g. Biosyntan (Berlin, Germany).
(§1) For that, 100-fold concentrated DMSO solutions were prepared by serial dilutions (1:3.4) of a 2 mM stock solution in a clear, 384-well microtiter plate (Greiner Bio-One, Frickenhausen, Germany). From there, 50 nl were transferred in a dark test plate (Greiner Bio-One, Frickenhausen, Germany). The assay was initiated by addition of 2 μL of a 2,5-fold concentrated MBP-MCL-1 solution (usually for a 1 nM end concentration in 5 μL reaction volume) in aqueous assay buffer [50 mM Tris/HCl pH 7, 100 mM sodium chloride (NaCl), 50 mM potassium fluoride (KF), 0.005% Tween-20, 2 mM DTT, 0.1% bovine gamma globulin (BGG)] to the compounds in the assay plate. This was followed by a 10-minute incubation step at 22° C. for pre-equilibration of the putative complex between MBP-MCL-1 and the compounds.
The mixture was incubated in the dark for one hour at 22° C. and then overnight at 4° C. The formation of MCL-1/Noxa complexes was determined by measuring the resonance energy transfer of the anti-MBP-Eu-cryptate antibody to the streptavidin-XL665 present in the reaction.
(§2) For that purpose, the fluorescence emission at 620 nm and 665 nm after excitation at 330-350 nm was measured in a TR-FRET measuring instrument, for instance a Rubystar or a Pherastar (both from BMG Lab Technologies, Offenburg, Germany) or a Viewlux (Perkin-Elmer). The ratio of the emission at 665 nm and at 622 nm was used as indicator of the amount of MCL-1/NOXA complexes present.
(§3) The resulting data (ratio) were normalized, taking 0% inhibition as the mean value of control measurements (usually 32 data points) where all reagents were included. In this case 50 nl DMSO were used instead of compounds. […] IC50 values were determined by regression analysis based on a 4 parameter equation (minimum, maximum, IC50, Hill; Y=Max+(Min−Max)/(1+(X/IC50)^Hill) using the Screener Software (Genedata).
Background: TR-FRET usually uses a lanthanide donor and a delayed reading to cut background.

Data set [2] deals with SUDHL10 cells. Briefly: Induction of cytotoxicity in SUDHL10 cells (Assay 6). The settings on record: 5 h, CellTiter-Glo, read-out: Cytotox SUDHL10 IC50 (median). It is filed as cell-based. The method in brief:
(§4)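 Cells plated overnight at 37 °C, then exposed to compound for 5 h in a humidified incubator at 37 °C. Viability read by CellTiter-Glo luminescence after 15 min shaking at room temperature; cell-free medium served as control.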
In general terms: In ATP-based viability assays light output follows the ATP content of the culture.

Data set [3] has as its system SUDHL5 cells. Kind of data set: Induction of cytotoxicity in SUDHL5 cells (Assay 6). It is filed as cell-based. The settings on record: 5 h, CellTiter-Glo, read-out: Cytotox SUDHL5 IC50 (median). Summed up:
as §4

Data set [4] relates to SUDHL5 cells. Briefly: Antiproliferation assay SUDHL5 (Assay 7). It is filed as cell-based. The conditions noted are these: 72 h, CellTiter-Glo, read-out: Antiproli SUDHL5 IC50 (median). Summed up: (§5)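 Growth inhibition is determined from ATP luminescence (CellTiter-Glo) following 72 h incubation with compound. Time-zero cells are measured the same way for baseline, and IC50s are referenced to DMSO controls.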

In data set [5] the test system is SUDHL10 cells. Kind of data set: Induction of caspase-3/7 activity in SUDHL10 cells (Assay 4). It is filed as cell-based. The method in brief: (§6)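 Read-out: Caspase-Glo 3/7 luminescence (1 h, 37 °C) after cells, plated overnight, were treated with compounds for 3 h at 37 °C. Signal corrected for cell-free medium background and expressed relative to DMSO control mean.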

For data set [6], the system named is SUDHL5 cells. Kind of data set: Induction of caspase-3/7 activity in SUDHL5 cells (Assay 4). It is filed as cell-based. Summed up: as §6
Data set [7] has as its system AMO-1 cells. Kind of data set: Antiproliferation assay AMO-1 (Assay 7). It is filed as cell-based. The settings on record: 72 h, CellTiter-Glo, read-out: Antiproli AMO-1 IC50 median. The method in brief: as §5
The subject of data set [8] is HMC-1-8 cells. Kind of data set: Antiproliferation assay HMC-1-8 (Assay 7). It is filed as cell-based. The method in brief:
as §5

Data set [9] addresses BCL-XL (Homo sapiens (Human), UniProt Q07817). Briefly: Protein-protein interaction assay BCL-XL/Bad BH3 peptide (BCL-XL assay, TR-FRET). It is filed as binding. The settings on record: read-out: BCL-XL Assay IC50 (median). The procedure:
Assay 2 Protein-Protein Interaction Assay: BCL-XL/Bad BH3 Peptide (BCL-XL Assay)
The dose-dependent inhibition by the compounds described in this invention of the interaction between BCL-XL and the BH3 domain of Bad (both human) was determined using a steady state binding competition assay with time-resolved fluorescence energy transfer (TR-FRET) readout. For that purpose BCL-XL (amino acids 1-212, C-terminal fused to a hexahistidine (6×His) tag (SEQ ID 3) and a synthetic Bad BH3-derived peptide of sequence Biotin-PEG2-PEG2-[…]-Nle-[…]-amide (SEQ ID 4) served as protein receptor and tracer ligand respectively. The recombinant BCL-XL protein (expressed in E. coli) was purchased from BPS Bioscience (San Diego, Calif., USA). The Bad BH3-derived peptide can be obtained from e.g. Biosyntan (Berlin, Germany).
as §1, with “In the assay 11 different concentrations of each compound (0.1 nM, 0.33 nM, 1.1 nM, 3.8 nM, 13 nM, 44 nM, 0.15 μM, 0.51 μM, 1.7 μM, 5.9 μM and 20 μM) were typically measured as duplicates in the same microtiter plate. For” for “For”, “His-BCL-XL” for “MBP-MCL-1”, “compounds. After that, 3 μL of a 1.67-fold concentrated solution (in assay buffer) consisting of Bad BH3-derived peptide (1 nM end concentration) and TR-FRET detection reagents [1.67 nM anti-His-Eu cryptate and 1.67 nM streptavidin-XL665 (both from Cisbio Bioassays, Codolet, France)], were added.” for “compounds.”
as §2, with “The mixture was incubated in the dark for one hour at 22° C. and then overnight at 4° C. The formation of BCL-XL/Bad complexes was determined by measuring the resonance energy transfer of the anti-His- Eu-cryptate antibody to the streptavidin-XL665 present in the reaction. For” for “For”, “BCL-XL/Bad” for “MCL-1/NOXA”
as §3

Setting [10] is: Homo sapiens, SU-DHL10, 3 h, caspase-3/7 induction, 3 h; read-out: Caspase SUDHL10 EC50 (median).
Where [11] appears, read: Homo sapiens, SU-DHL-5, 3 h, caspase-3/7 induction, 3 h; read-out: Caspase SUDHL5 EC50 (median).
[12] abbreviates: read-out: Caspase SUDHL10 EC50 (median); caspase-3/7 induction, 3 h.
Setting [13] is: read-out: Caspase SUDHL5 EC50 (median); caspase-3/7 induction, 3 h.
[14] abbreviates: read-out: Antiproli HMC-1-8 IC50 median; 72 h, CellTiter-Glo.

Chain of MCL-1 (Q07820 whole entry, looked up, stated change not applied, the tested form may be a part): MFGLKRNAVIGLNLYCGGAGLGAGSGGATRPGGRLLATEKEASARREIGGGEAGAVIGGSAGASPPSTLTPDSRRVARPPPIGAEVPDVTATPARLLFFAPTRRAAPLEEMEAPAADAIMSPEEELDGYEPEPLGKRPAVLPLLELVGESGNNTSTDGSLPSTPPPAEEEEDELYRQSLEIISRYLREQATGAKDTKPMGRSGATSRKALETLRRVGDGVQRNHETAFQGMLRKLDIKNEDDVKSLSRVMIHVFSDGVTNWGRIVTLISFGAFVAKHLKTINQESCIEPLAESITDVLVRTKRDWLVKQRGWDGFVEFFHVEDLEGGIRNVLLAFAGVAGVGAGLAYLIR
Chain of BCL-XL (Q07817 1-212): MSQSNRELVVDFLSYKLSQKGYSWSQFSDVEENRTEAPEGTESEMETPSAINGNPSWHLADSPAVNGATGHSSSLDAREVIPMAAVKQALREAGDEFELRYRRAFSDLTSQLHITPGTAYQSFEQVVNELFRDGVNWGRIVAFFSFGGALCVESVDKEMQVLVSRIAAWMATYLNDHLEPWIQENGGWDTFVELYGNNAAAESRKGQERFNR

One may read the IC50 as the concentration that gives 50% inhibition. In general, EC50 refers to the concentration that produces a half-maximal response. `Cc1c2c(nn1C)C(CCN1CCOCC1)OCCCCn1c(C(=O)O)c(CCCOc3cccc4ccccc34)c3cccc-2c31` (racemic) [Example 4, (rac)-2,3-dimethyl-15-[2-(morpholin-4-yl)ethyl]-7-[3-(naphthalen-1-yloxy)propyl]-2,10,11,12,13,15-hexahydropyrazolo[4′,3′:9,10][1,6]oxazacycloundecino[8,7,6-hi]indole-8-carboxylic Acid (Mixture of Stereoisomers)]: the IC50 came to 0.0011 µM in data set [1]; 1.1 µM in [2] (Homo sapiens, SU-DHL10, 5 h); 0.55 µM in data set [3] (Homo sapiens, SU-DHL-5, 5 h); 0.5 µM in [4] (Homo sapiens, SU-DHL-5, 72 h). In addition, the EC50 in data set [5] (setting [10]) amounted to 0.99 µM; in data set [6] (setting [11]), 0.52 µM.
On to `CCc1c2c(nn1C)C(CCN1CC(F)(F)C1)OCCCCn1c(C(=O)O)c(CCCOc3cccc4cc(F)ccc34)c3ccc(Cl)c-2c31` (racemic) [Example 77, (rac)-4-chloro-(15-rac)-[2-(3,3-difluoroazetidin-1-yl)ethyl]-3-ethyl-7-{3-[(6-fluoronaphthalen-1-yl)oxy]propyl}-2-methyl-2,10,11,12,13,15-hexahydropyrazolo[4′,3′:9,10][1,6]oxazacycloundecino[8,7,6-hi]indole-8-carboxylic Acid], for which the IC50 in [1] was 0.0017 µM; in [2] (Homo sapiens, SU-DHL10, 5 h), 0.1 µM; in [3] (Homo sapiens, SU-DHL-5, 5 h) it was 0.045 µM; in data set [4] (Homo sapiens, SU-DHL-5, 72 h), 0.071 µM; in data set [7] (Homo sapiens, AMO1, 72 h), 0.0315 µM; in data set [8] (72 h, CellTiter-Glo, read-out: Antiproli HMC-1-8 IC50 median), 0.52 µM. The EC50 amounted to 0.037 µM in data set [5] (setting [10]) and 0.031 µM in data set [6] (setting [11]).
`CCc1c2c(nn1C)C(C(F)(F)F)OCCCCn1c(C(=O)O)c(CCCOc3cccc4ccccc34)c3ccc(Cl)c-2c31` (single isomer, unassigned; enantiomer 2) [Example 34, (−)-4-chloro-3-ethyl-2-methyl-7-{3-[(naphthalen-1-yl)oxy]propyl}-15-(trifluoromethyl)-2,10,11,12,13,15-hexahydropyrazolo[4′,3′:9,10][1,6]oxazacycloundecino[8,7,6-hi]indole-8-carboxylic Acid—N-ethylethanamine Salt (Enantiomer 2)]: the concentration for half-maximal inhibition (IC50) in data set [2] was 26 µM; in data set [3], 7.1 µM; in [9] it was greater than 20 µM; in [7], 30.9 µM; in data set [8] (setting [14]) it was 20.7 µM. The EC50 in data set [5] (setting [12]) and in data set [6] (setting [13]) was greater than 33 µM throughout.
For the compound `CCc1c2c(nn1C)C(C1CC1)OCCCCn1c(C(=O)O)c(CCCOc3cccc4cc(F)ccc34)c3ccc(Cl)c-2c31` (single isomer, unassigned; enantiomer 2) [Example 40, (−)-4-chloro-15-cyclopropyl-3-ethyl-7-{3-[(6-fluoronaphthalen-1-yl)oxy]propyl}-2-methyl-2,10,11,12,13,15-hexahydropyrazolo[4′,3′:9,10][1,6]oxazacycloundecino[8,7,6-hi]indole-8-carboxylic Acid—N-ethylethanamine Salt (Enantiomer 2)], the IC50 in data set [2] was 29 µM; in data set [3], 20 µM; in data set [9] it was greater than 20 µM; in data set [8] (setting [14]), 23.2 µM. The figures for the EC50 in data set [5] (setting [12]) and in data set [6] (setting [13]) were 25 µM and greater than 33 µM, respectively.
As for `Cc1c2c(nn1C)C(CCN1CCOCC1)OCCCCn1c(C(=O)O)c(CCCOc3cccc4ccccc34)c3cccc-2c31` (single isomer, unassigned; stereoisomer 1) [Example 5, 2,3-dimethyl-15-[2-(morpholin-4-yl)ethyl]-7-[3-(naphthalen-1-yloxy)propyl]-2,10,11,12,13,15-hexahydropyrazolo[4′,3′:9,10][1,6]oxazacycloundecino[8,7,6-hi]indole-8-carboxylic Acid (Stereoisomer 1)], the IC50 in data set [1] came to 0.0012 µM; in [2], 0.49 µM; in [3], 0.34 µM; in [4], 0.44 µM. The EC50 is 0.52 µM in [5] (caspase-3/7 induction, 3 h; read-out: Caspase SUDHL10 EC50 (median)) and 0.3 µM in data set [6] (caspase-3/7 induction, 3 h; read-out: Caspase SUDHL5 EC50 (median)).
